Molecular target: T1, MAD2L1 (T24 cells; MAD2L1WT and mutants reconstituted in MAD2L1‐KD T24 cells) (Homo sapiens, UniProt Q13257)
T1 construct: MAD2L1 in human T24 cells: native, or WT / mutants re-expressed by lentivirus in knockdown cells; Western blot read-out
Assay: streptavidin pull-down, Western blot and MS
Type: biochemical
Conditions: labelled compound; T24 lysate, 4 °C; competed by excess unlabelled A2

T1 sequence (Q13257 2-205, change not shown): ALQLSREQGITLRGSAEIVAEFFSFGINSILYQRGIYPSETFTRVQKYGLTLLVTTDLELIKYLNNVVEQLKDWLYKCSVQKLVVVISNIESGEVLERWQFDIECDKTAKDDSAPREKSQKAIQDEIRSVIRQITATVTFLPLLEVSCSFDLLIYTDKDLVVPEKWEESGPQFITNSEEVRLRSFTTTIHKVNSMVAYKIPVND

Structure (SMILES): CCc1c2c(nc3cccc(F)c13)-c1cc3c(c(=O)n1C2)COC(=O)[C@@]3(CC)OC(=O)CCCC[C@@H]1SC[C@@H]2NC(=O)N[C@@H]21 [A2‐biotin]
- streptavidin pull-down, Western blot and MS: pull‐down/Western blot analysis demonstrated that A2‐biotin directly binds to MAD2L1
